# In PMC10766962 (Nature Communications, 2024):
# “And” between values parts separate entries of the source, which are not always exact repeats. Equal entries are not always repeated. “Also recorded” adds a separate entry of the source. Where two headings read alike, the source gives them in different places. Positions of bridges follow the written chain, without caps; N, C: chain ends. Non-standard residues stand in square brackets, D forms with d. Residues, ends and D or L forms follow the SMILES beside them. Groups on a side chain read outwards from the residue. *: point of attachment. Acetyl(2-S-cholesteryl) = CC(C)CCC[C@@H](C)[C@H]1CC[C@H]2[C@@H]3CC=C4C[C@@H](SCC(=O)*)CC[C@]4(C)[C@H]3CC[C@]12C; R8 = C=CCCCCCC[C@@](C)(N)C(=O)O; PEG4 = NCCOCCOCCOCCOCCC(=O)O; S5 = C=CCCC[C@](C)(N)C(=O)O; Nle = CCCC[C@H](N)C(=O)O
# Key:
# [1] = target: SARS-CoV-2 5-helix bundle (5-HB) protein (Severe acute respiratory syndrome coronavirus 2, UniProt P0DTC2); test: biochemical; type: binding
# [2] = system: SARS-CoV-2 Delta B.1.617.2 live virus
# [3] = system: SARS-CoV-2 WA-1 (Wuhan) isolate; set-up: species or system Syrian (Golden) hamsters; settings: hamster, in vivo
# [4] = type: physicochemical; settings: pH 7.4
# [5] = system: SARS-CoV-2 B.1.617.2 pseudovirus
# in vivo [6] = settings: male, Syrian (Golden), hamster, inhaled or intranasal, 2.5 mg/kg, Nasal Tissue
# [7] = system: SARS-CoV-2 Beta B.1.351 live virus
# [8] = system: SARS-CoV-2 WA-1 (Wuhan) isolate; set-up: species or system Syrian (Golden) hamsters; settings: hamster, in vivo; remark: listed apart in the source
# [9] = mouse, in vivo
# [10] = system: SARS-CoV-2 B.1.1.529.1 pseudovirus
# [11] = type: physicochemical; settings: pH 7.5
# [12] = type: physicochemical
# in vivo [13] = settings: male, C57BL/6, mouse, inhaled or intranasal
# [14] = 1 mg/kg, RQ-01 Nasal Tissue Concentration
# [15] = 3 mg/kg, RQ-01 Nasal Tissue Concentration
# [16] = 10 mg/kg, RQ-01 Nasal Tissue Concentration
structure (smiles),measurement,setting,value
CC[C@H](C)[C@H](NC(=O)CNC(=O)[C@H](CO)NC(=O)[C@@H](NC(=O)[C@H](CC(=O)O)NC(C)=O)[C@@H](C)CC)C(=O)N[C@@H](CC(N)=O)C(=O)N[C@@H](C)C(=O)N[C@@H](CO)C(=O)N[C@H](C(=O)N[C@H](C(=O)N[C@@H](CC(N)=O)C(=O)N[C@H](C(=O)N[C@]1(C)CCCCCCC=CCCC[C@@](C)(C(=O)N[C@@H](CCC(=O)O)C(=O)N[C@H](C(=O)N[C@@H](C)C(=O)N[C@@H](CCCCN)C(=O)N[C@@H](CC(N)=O)C(=O)N[C@@H](CC(C)C)C(=O)N[C@@H](CC(N)=O)C(=O)N[C@@H](CCC(=O)O)C(=O)N[C@@H](CO)C(=O)N[C@@H](CC(C)C)C(=O)N[C@H](C(=O)N[C@@H](CC(=O)O)C(=O)N[C@@H](CC(C)C)C(=O)N[C@@H](CCC(N)=O)C(=O)N[C@@H](CCC(=O)O)C(=O)N[C@@H](CC(C)C)C(=O)NCC(=O)N[C@@H](CCCCN)C(N)=O)[C@@H](C)CC)C(C)C)NC(=O)[C@H](CC(C)C)NC(=O)[C@H](CCCNC(=N)N)NC(=O)[C@H](CC(=O)O)NC(=O)[C@H]([C@@H](C)CC)NC(=O)[C@H](CCC(=O)O)NC(=O)[C@H](CCCCN)NC1=O)[C@@H](C)CC)C(C)C)C(C)C [RQ-01 (- linker-lipid)],improvement of affinity compared to the unstapled HR2 peptide,[1],7.5 fold
CC[C@H](C)[C@H](NC(=O)CNC(=O)[C@H](CO)NC(=O)[C@@H](NC(=O)[C@H](CC(=O)O)NC(C)=O)[C@@H](C)CC)C(=O)N[C@@H](CC(N)=O)C(=O)N[C@@H](C)C(=O)N[C@@H](CO)C(=O)N[C@H](C(=O)N[C@H](C(=O)N[C@@H](CC(N)=O)C(=O)N[C@H](C(=O)N[C@]1(C)CCCCCCC=CCCC[C@@](C)(C(=O)N[C@@H](CCC(=O)O)C(=O)N[C@H](C(=O)N[C@@H](C)C(=O)N[C@@H](CCCCN)C(=O)N[C@@H](CC(N)=O)C(=O)N[C@@H](CC(C)C)C(=O)N[C@@H](CC(N)=O)C(=O)N[C@@H](CCC(=O)O)C(=O)N[C@@H](CO)C(=O)N[C@@H](CC(C)C)C(=O)N[C@H](C(=O)N[C@@H](CC(=O)O)C(=O)N[C@@H](CC(C)C)C(=O)N[C@@H](CCC(N)=O)C(=O)N[C@@H](CCC(=O)O)C(=O)N[C@@H](CC(C)C)C(=O)NCC(=O)N[C@@H](CCCCNC(=O)CCOCCOCCOCCOCCOCCOCCOCCOCCNC(=O)CO[C@H]2CC[C@@]3(C)C(=CC[C@H]4[C@@H]5CC[C@H]([C@H](C)CCCC(C)C)[C@@]5(C)CC[C@@H]43)C2)C(N)=O)[C@@H](C)CC)C(C)C)NC(=O)[C@H](CC(C)C)NC(=O)[C@H](CCCNC(=N)N)NC(=O)[C@H](CC(=O)O)NC(=O)[C@H]([C@@H](C)CC)NC(=O)[C@H](CCC(=O)O)NC(=O)[C@H](CCCCN)NC1=O)[C@@H](C)CC)C(C)C)C(C)C [RQ-01],fold by which RQ-01 outperformed SARSHRC-PEG4-chol,[2],5.4 fold
same,OP swab titers (Day 3),[3],A subset of hamsters from both RQ-01 treated cohorts exhibited reduced OP swab titers
same,lung viral titers,[3],suppression of lung viral titers
same,transmission to sentinel hamsters,[3],did not prevent transmission
same,weight loss of sentinels,[3],protection from weight loss
same,elution by fast protein liquid chromatography,[4],eluted as a monodispersed peak
same,cytotoxicity,A549-ACE2 cells,no cytotoxicity
same,fold by which RQ-01 outperformed SARSHRC-PEG4-chol,[5],4.7 fold
same,level at time molar at 4 h,in vivo [6]; RQ-01 tissue concentration,23.2 µM
same,level at time molar at 4 h,"in vivo [6]; pH 6.5, RQ-01 tissue concentration",28.8 µM
same,improvement of antiviral activity compared to the unstapled peptide,[7],24 to 39 fold
same,OP swab titer,[8],10-20 PFUs
same,"lung histopathology (pneumonia global severity score, total lung score)",[8],significant protection from the pulmonary sequelae of SARS-CoV-2 infection
same,viral shedding by OP swab,[8],significantly reduced
same,weight loss,[8],significant protective effect from weight loss; also recorded: protection from weight loss was also observed
same,clinical observations,[9],no adverse clinical findings
same,nasal tissue exposure relative to IC90 value,[9],100-2000 x IC90
same,nasal tissue levels relative to infectivity assay IC90,[9],over 100
same,peak lung tissue concentration relative to nasal tissue,[9]; pH 6.5,approximately 1/10th
same,plasma exposure relative to nasal tissue,[9]; pH 6.5,approximately 1/1000th
same,nasal tissue level by 48 h,[9]; pH 7.2,1 µM
same,peak lung level,[9]; pH 7.2,1 µM
same,EC50,[1],1.9 nM
same,fold by which RQ-01 outperformed SARSHRC-PEG4-chol,[10],23 fold
same,circular dichroism analysis,[11],exhibited α-helical character
same,"intact compound, % of initial levels",[12]; 25 μM,fully preserved
same,Percent Intact Peptide,[12]; 1 h,108.538% and 105.019% and 100.148% and 101.614%
same,Percent Intact Peptide,[12]; 12 h,100.519% and 101.487% and 97.3524% and 61.8294% and 103.036% and 91.5274% and 92.844% and 95.276%
same,level at time molar at 2 h,in vivo [13]; [14],16.2 µM
same,level at time molar at 4 h,in vivo [13]; [14],22.5 µM
same,level at time molar at 7 h,"in vivo [13]; 1 mg/kg, RQ-01 Tissue Concentration",0.064 µM
same,level at time molar,"in vivo [13]; 2 mg/kg, pH 7.2, nasal tissue level, start",10 µM
same,level at time molar at 2 h,in vivo [13]; [15],27.5 µM
same,level at time molar at 4 h,in vivo [13]; [15],28.1 µM
same,level at time molar at 7 h,in vivo [13]; [15],26.4 µM
same,level at time molar at 24 h,in vivo [13]; [15],18.7 µM
same,level at time molar at 2 h,in vivo [13]; [16],73 µM
same,level at time molar at 4 h,in vivo [13]; [16],44.9 µM
same,level at time molar at 7 h,in vivo [13]; [16],59.6 µM
same,level at time molar at 24 h,in vivo [13]; [16],25.4 µM
CC[C@H](C)[C@H](NC(=O)[C@H](C)NC(=O)[C@H](CS)NC(=O)[C@H](CC(=O)O)NC(=O)[C@@H]1CCCN1C(=O)CNC(=O)[C@H](CC(C)C)NC(=O)[C@@H](NC(=O)[C@H](Cc1c[nH]cn1)NC(=O)[C@H](CS)NC(=O)[C@@H](NC(C)=O)[C@@H](C)O)[C@@H](C)CC)C(=O)N[C@@H](CCC(=O)O)C(=O)N1CCC[C@H]1C(=O)N[C@@H](Cc1c[nH]cn1)C(=O)N[C@@H](CC(=O)O)C(=O)N[C@@H](Cc1c[nH]c2ccccc12)C(=O)N[C@H](C(=O)N[C@]1(C)CCCCCCC=CCCC[C@@](C)(C(=O)N[C@@H](CCC(N)=O)C(=O)N[C@H](C(=O)N[C@H](C(=O)N[C@@H](Cc2c[nH]cn2)C(=O)N[C@@H](CC(=O)O)C(=O)N[C@@H](Cc2ccccc2)C(=O)N[C@H](C(=O)N[C@@H](CCCCNC(=O)CCOCCOCCOCCOCCNC(=O)CS[C@H]2CC[C@@]3(C)C(=CC[C@H]4[C@@H]5CC[C@H]([C@H](C)CCCC(C)C)[C@@]5(C)CC[C@@H]43)C2)C(N)=O)C(C)C)[C@@H](C)CC)[C@@H](C)CC)NC(=O)[C@H]([C@@H](C)CC)NC(=O)[C@H](CCCCN)NC(=O)[C@H](CC(=O)O)NC(=O)[C@H]([C@@H](C)O)NC(=O)[C@H]([C@@H](C)CC)NC(=O)[C@H](CCC(=O)O)NC1=O)[C@@H](C)O [SLI-EBOV] (Ac-TCHILGPDCAIEPHDWT[R8]EITDKI[S5]QIIHDFVK([PEG4-Acetyl(2-S-cholesteryl)])-NH2; staple 18-25),cytotoxicity,HeLa cells,no cytotoxicity
CCCC[C@H](NC(=O)[C@H](CO)NC(=O)[C@H](CO)NC(=O)[C@@H](NC(=O)[C@H](CCC(N)=O)NC(=O)[C@H](CO)NC(=O)[C@H](CO)NC(=O)[C@@H](NC(=O)[C@H](CC(=O)O)NC(C)=O)[C@@H](C)CC)[C@@H](C)CC)C(=O)N[C@@H](CC(N)=O)C(=O)N[C@@H](CCC(N)=O)C(=O)N[C@@H](CO)C(=O)N[C@@H](CC(C)C)C(=O)N[C@]1(C)CCCCCCC=CCCC[C@@](C)(C(=O)N[C@@H](CCC(=O)O)C(=O)N[C@@H](C)C(=O)N[C@@H](CCC(N)=O)C(=O)N[C@@H](CCCCN)C(=O)N[C@H](C(=O)N[C@@H](CC(C)C)C(=O)N[C@@H](CC(=O)O)C(=O)N[C@H](C(=O)N[C@H](C(=O)N[C@@H](CCCCNC(=O)CCOCCOCCOCCOCCNC(=O)CS[C@H]2CC[C@@]3(C)C(=CC[C@H]4[C@@H]5CC[C@H]([C@H](C)CCCC(C)C)[C@@]5(C)CC[C@@H]43)C2)C(N)=O)C(C)C)[C@@H](C)O)[C@@H](C)CC)NC(=O)[C@H]([C@@H](C)CC)NC(=O)[C@H](Cc2ccc(O)cc2)NC(=O)[C@H](CC(=O)O)NC(=O)[C@H](CCCCN)NC(=O)[C@H](CO)NC(=O)[C@H](CCC(N)=O)NC1=O [SLI-NIPV] (Ac-DISSQISS[Nle]NQSL[R8]QSKDYI[S5]EAQKILDTVK([PEG4-Acetyl(2-S-cholesteryl)])-NH2; staple 14-21),cytotoxicity,293T cells,no cytotoxicity
